# From patent publication US20190159452A1, “ACTIVE COMPOUND COMBINATIONS COMPRISING A (THIO)CARBOXAMIDE DERIVATIVE AND A FUNGICIDAL COMPOUND” (BAYER CROPSCIENCE AKTIENGESELLSCHAFT, priority 2015, published 2019)
# How the values were obtained:
# [1] = system: Septoria tritici; test: in vivo preventive Septoria tritici test (wheat); details: 21 days after inoculation
# From the text: (§1) A synergistic effect of fungicides is always present when the fungicidal activity of the active compound combinations exceeds the total of the activities of the active compounds when applied individually. The expected activity for a given combination of two active compounds can be calculated as follows (cf. Colby, S. R., “Calculating Synergistic and Antagonistic Responses of Herbicide Combinations”, Weeds 1967, 15, 20-22): • If • X is the efficacy when active compound A is applied at an application rate of m ppm (or g/ha), • Y is the efficacy when active compound B is applied at an application rate of n ppm (or g/ha), • E is the efficacy when the active compounds A and B are applied at application rates of m and n ppm (or g/ha), respectively, and • then
# (§2) The degree of efficacy, expressed in % is denoted. 0% means an efficacy which corresponds to that of the control while an efficacy of 100% means that no disease is observed.
# (§3) Solvent: 49 parts by weight of N,N-dimethylacetamide
# (§4) Emulsifier: 1 part by weight of alkylaryl polyglycol ether
# To produce a suitable preparation of active compound, 1 part by weight of active compound or active compound combination is mixed with the stated amounts of solvent and emulsifier, and the concentrate is diluted with water to the desired concentration. […]
# The test is evaluated 21 days after the inoculation. […]
# [2] = system: Puccinia triticina; test: in vivo preventive Puccinia triticina test (wheat); details: 8 days after inoculation
# From the text: as §1, §2, §3, §4
# (§5) To produce a suitable preparation of active compound, 1 part by weight of active compound or active compound combination is mixed with the stated amounts of solvent and emulsifier, and the concentrate is diluted with water to the desired concentration.
# (§6) To test for preventive activity, young plants are sprayed with the preparation of active compound or active compound combination at the stated rate of application.
# (§7) After the spray coating has been dried, the plants are sprayed with a spore suspension of Puccinia triticina. The plants remain for 48 hours in an incubation cabinet at approximately 20° C. and a relative atmospheric humidity of approximately 100%.
# The plants are placed in the greenhouse at a temperature of approximately 20° C. and a relative atmospheric humidity of approximately 80%.
# (§8) The test is evaluated 8 days after the inoculation. 0% means an efficacy which corresponds to that of the untreated control, while an efficacy of 100% means that no disease is observed.
# [3] = log P by HPLC on a reversed-phase column (C18), EEC Directive 79/831 Annex V.A8; assay type: physicochemical; details: for chromatographic logP: reversed-phase C18 HPLC column, printed after the preparation step, method not restated
# Protocol: In table 1, the log P values were determined in accordance with EEC Directive 79/831 Annex V.A8 by HPLC (High Performance Liquid Chromatography) on a reversed-phase column (C18), using the method described below:
# Temperature: 40° C.; Mobile phases: 0.1% aqueous formic acid and acetonitrile; linear gradient from 10% acetonitrile to 90% acetonitrile.
# Calibration was carried out using unbranched alkan-2-ones (comprising 3 to 16 carbon atoms) with known log P values (determination of the log P values by the retention times using linear interpolation between two successive alkanones). lambda-max-values were determined using UV-spectra from 200 nm to 400 nm and the peak values of the chromatographic signals.
# [4] = system: Leptosphaeria nodorum; test: in vitro-test Leptosphaeria nodorum (microtiter plate, growth by extinction at 620 nm); assay type: cell-based; details: 2.5 ppm a.i., 3-5 days incubation
# From the text: A synergistic effect of fungicides is always present when the fungicidal activity of the active compound combinations exceeds the total of the activities of the active compounds when applied individually. The expected activity for a given combination of two active compounds can be calculated as follows (cf. Colby, S. R., “Calculating Synergistic and Antagonistic Responses of Herbicide Combinations”, Weeds 1967, 15, 20-22): • If • X is the efficacy when active compound A is applied at an application rate of m ppm (or g/ha), • Y is the efficacy when active compound B is applied at an application rate of n ppm (or g/ha), • E is the efficacy when the active compounds A and B are applied at application rates of m and n ppm (or g/ha), respectively, and • then […]
# The resulting concentrations of the test compounds or compound combinations in the microtiter wells are such as 50, 10, 2 and 0.4 ppm. […] With the aid of a photometer the extinction in all wells is measured at the wavelength of 620 nm. […]
# At the end of the incubation time the growth of the test organisms is measured again photometrically at the wavelength of 620 nm. […] 0% efficacy means, the difference between the two extinction values is equal or even higher than of the untreated control, 100% efficacy means, no growth of the test organism is detected
# [5] = system: Septoria tritici; test: in vitro-test Septoria tritici (microtiter plate, growth by extinction at 620 nm); assay type: cell-based
# From the text: as §1
# Wells of 96-well microtiter plates are filled with 10 μl of a solution of the test compounds or compound combinations in methanol together with the emulsifier alkylaryl polyglycol ether. Thereafter, the solvent is evaporated in a hood. At the next step, into each well 100 μl of liquid potato dextrose medium is given, that has been amended with an appropriate concentration of spores or mycelium suspension of the test fungus.
# The resulting concentrations of the test compounds or compound combinations in the microtiter wells are such as 50, 10, 2 and 0.4 ppm. The resulting concentration of the emulsifier in all wells is constantly 300 ppm. With the aid of a photometer the extinction in all wells is measured at the wavelength of 620 nm.
# The microtiter plates are then transferred for 3-5 days onto a shaker at 20° C. and 85% relative humidity.
# At the end of the incubation time the growth of the test organisms is measured again photometrically at the wavelength of 620 nm. The difference between the two extinctions values (taken before and after incubation) is proportional to the growth of the test organism. 0% efficacy means, the difference between the two extinction values is equal or even higher than of the untreated control, 100% efficacy means, no growth of the test organism is detected
# [6] = system: Pyrenophora teres; test: in vivo preventive Pyrenophora teres test (barley); details: 8 days after inoculation
# From the text: as §1, §2, §3, §4, §5, §6
# as §7, with “Pyrenophora teres.” for “Puccinia triticina.”, “100%. The plants are placed in the greenhouse at a temperature of approximately 20° C. and a relative atmospheric humidity of approximately 80%.” for “100%.”
# as §8
# [7] = system: Blumeria graminis f.sp. hordei; test: in vivo preventive Blumeria test (barley); details: 7 days after inoculation
# From the text: as §1, §2, §3, §4, §5
# To test for preventive activity, young plants are sprayed with the preparation of active compound or active compound combination at the stated rate of application. After the spray coating has been dried, the plants are dusted with spores of Blumeria graminis f.sp. hordei.
# The plants are placed in the greenhouse at a temperature of approximately 18° C. and a relative atmospheric humidity of approximately 80% to promote the development of mildew pustules.
# The test is evaluated 7 days after the inoculation. 0% means an efficacy which corresponds to that of the untreated control, while an efficacy of 100% means that no disease is observed.
# [8] = Table B1, 30 ppm a.i., wheat, preventive
# [9] = 0.1 ppm a.i., 3-5 days incubation
molecule,measurement,setting,value
"Cc1ccc(S(=O)(=O)n2cc(F)c(=N)n(C)c2=O)cc1 [(B1), 5-fluoro-4-imino-3-methyl-1-[(4-methylphenyl)sulfonyl]-3,4-dihydropyrimidin-2(1H)-one]",Efficacy in % found,[1]; 30 ppm a.i.,0%
same,Efficacy in % found,[2]; [8],0%
same,chromatographic logP,[3],1.26
N-cyclopropyl-3-(difluoromethyl)-5-fluoro-N-(2-isopropylbenzyl)-1-methyl-1H-pyrazole-4-carbothio-amide [Compound A20],logP,[3],4.36
"CC(C)C(O)(Cn1cncn1)c1ccc(Oc2ccc(Cl)cc2)cc1C(F)(F)F (centres unmarked) [(B2), 2-[4-(4-chlorophenoxy)-2-(trifluoromethyl)phenyl]-3-methyl-1-(1H-1,2,4-triazol-1-yl)butan-2-ol]",Efficacy in % found,"[2]; Table B2, 30 ppm a.i.",0%
same,Efficacy in % found,"[2]; Table B2, 50 ppm a.i.",10%
same,Efficacy in % found,"[2]; Table B2, 100 ppm a.i.",30%
same,Efficacy in % found,"[2]; Table B2, 200 ppm a.i.",40%
same,Efficacy in % found,[4],1%
same,Efficacy in % found,[5]; [9],0%
same,Efficacy in % found,[5]; 0.3 ppm a.i.,6%
same,Efficacy in % found,[5]; 0.6 ppm a.i.,0%
same,Efficacy in % found,[6]; 50 ppm a.i.,22%
same,Efficacy in % found,[6]; 60 ppm a.i.,44%
same,Efficacy in % found,[6]; 100 ppm a.i.,56%
same,Efficacy in % found,[7]; 30 ppm a.i.,0%
same,Efficacy in % found,[7]; 50 ppm a.i.,30%
same,Efficacy in % found,[7]; 60 ppm a.i.,60%
same,Efficacy in % found,[7]; 100 ppm a.i.,70%
"CC(C)c1ccc(Cl)cc1CN(C(=O)c1c(C(F)F)nn(C)c1F)C1CC1 [Compound A5, N-(5-chloro-2-isopropylbenzyl)-N-cyclopropyl-3-(difluoromethyl)-5-fluoro-1-methyl-1H-pyrazole-4-carboxamide]",Efficacy in % found,[1]; 10 ppm a.i.,29%
same,Efficacy in % found,[2]; [8],75%
same,Efficacy in % found,"[2]; Table B2, 5 ppm a.i.",30%
same,Efficacy in % found,"[2]; Table B2, 10 ppm a.i.",40%
same,Efficacy in % found,"[2]; Table B2, 20 ppm a.i., wheat, preventive",70%
same,Efficacy in % found,[4],36%
same,Efficacy in % found,[5]; [9],65%
same,Efficacy in % found,[6]; 5 ppm a.i.,44%
same,Efficacy in % found,"[6]; 10 ppm a.i., barley, preventive",67%
same,Efficacy in % found,[7]; 5 ppm a.i.,0%
same,Efficacy in % found,[7]; 10 ppm a.i.,20%
same,Efficacy in % found,"[7]; 20 ppm a.i., barley, preventive",40%
Cc1ccc(S(=O)(=O)n2cc(F)c(N)nc2=O)cc1 [5-fluoro-4-imino-1-(p-tolylsulfonyl)pyrimidin-2-one],chromatographic logP,[3],1.45
